Test results: article PMC12926040, “ADP-ribose is a competitive inhibitor of methanol dehydrogenases from Bacillus methanolicus” (The Journal of Biological Chemistry, 2025)

T1: CbFDH (Candida boidinii, UniProt O13437)
T1 construct: made in house; cell-free extract
T1 sequence (O13437 1-364): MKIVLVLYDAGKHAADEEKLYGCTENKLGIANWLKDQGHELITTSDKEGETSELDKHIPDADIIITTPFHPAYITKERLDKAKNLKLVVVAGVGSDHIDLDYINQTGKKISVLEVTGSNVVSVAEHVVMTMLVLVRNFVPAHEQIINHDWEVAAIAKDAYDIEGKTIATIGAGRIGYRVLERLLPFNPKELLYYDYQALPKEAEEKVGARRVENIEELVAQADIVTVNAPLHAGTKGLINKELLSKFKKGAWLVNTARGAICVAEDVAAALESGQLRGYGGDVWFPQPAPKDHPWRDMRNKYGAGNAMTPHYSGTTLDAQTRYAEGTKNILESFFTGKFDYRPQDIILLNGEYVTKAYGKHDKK

T2: ADH from Saccharomyces cerevisiae (ScADH) (Saccharomyces cerevisiae, UniProt P00330)
T2 construct: purchased TCI A0200
T2 sequence (P00330 1-348): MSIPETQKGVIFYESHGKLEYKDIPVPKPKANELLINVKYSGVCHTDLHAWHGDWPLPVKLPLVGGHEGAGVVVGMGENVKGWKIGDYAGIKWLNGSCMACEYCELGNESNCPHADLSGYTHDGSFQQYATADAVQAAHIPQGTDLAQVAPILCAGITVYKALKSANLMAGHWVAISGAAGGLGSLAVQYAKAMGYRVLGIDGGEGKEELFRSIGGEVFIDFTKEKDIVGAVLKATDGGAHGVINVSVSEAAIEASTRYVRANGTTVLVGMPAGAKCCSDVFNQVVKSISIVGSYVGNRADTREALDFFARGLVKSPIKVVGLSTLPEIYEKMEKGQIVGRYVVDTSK

B1: ACT: activator protein ACT, Nudix hydrolase from B. methanolicus MGA3 with ADPRase activity (protein)
chain: MGKLFEEKTIKTEQIFSGRVVKLQVDDVELPNGQTSKREIVRHPGAVAVIAITNENKIVMVEQYRKPLEKSIVEIPAGKLEKGEDPRVTALRELEEETGYECEQMEWLISFATSPGFADEIIHLYVAKGLSKKENAAGLDEDEFVDLIELTLDEALQYIKEKRIYDSKTVIAVQYLQLQEALK
modifications: left off: His tag (from the vector pET21a(+) and the Ni-affinity column), end not stated, state not stated

Legend:
BmMDH2 [1] = target: T3, BmMDH2 (Bacillus methanolicus, UniProt I3E949); experiment: Effects of NAM, AMP and ADPR (0.3 mM each) on BmMDH2 activity; type: biochemical, Bacillus methanolicus MGA3; details: 3 mM NAD+, 40 mM ethanol
T3 sequence (I3E949 entry or part of it): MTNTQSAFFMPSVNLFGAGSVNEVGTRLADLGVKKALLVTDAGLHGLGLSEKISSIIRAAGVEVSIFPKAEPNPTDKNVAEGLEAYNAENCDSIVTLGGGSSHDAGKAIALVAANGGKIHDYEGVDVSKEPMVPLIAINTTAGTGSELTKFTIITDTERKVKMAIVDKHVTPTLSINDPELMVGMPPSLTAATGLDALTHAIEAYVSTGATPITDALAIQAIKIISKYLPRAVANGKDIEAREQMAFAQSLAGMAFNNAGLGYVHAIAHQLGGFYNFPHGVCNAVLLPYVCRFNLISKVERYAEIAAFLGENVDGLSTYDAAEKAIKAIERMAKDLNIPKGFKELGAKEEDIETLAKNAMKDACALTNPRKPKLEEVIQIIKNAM

[2] = target: T4, glucose dehydrogenase (BmGDH) (Priestia megaterium, UniProt P40288); experiment: Inhibition effect of ADPR on type II alcohol dehydrogenases; type: biochemical, Bacillus megaterium IWG3; details: 0.5 mM ADPR, 0.5 mM NAD+
T4 construct: made in house; cell-free extract
T4 sequence (P40288 whole entry): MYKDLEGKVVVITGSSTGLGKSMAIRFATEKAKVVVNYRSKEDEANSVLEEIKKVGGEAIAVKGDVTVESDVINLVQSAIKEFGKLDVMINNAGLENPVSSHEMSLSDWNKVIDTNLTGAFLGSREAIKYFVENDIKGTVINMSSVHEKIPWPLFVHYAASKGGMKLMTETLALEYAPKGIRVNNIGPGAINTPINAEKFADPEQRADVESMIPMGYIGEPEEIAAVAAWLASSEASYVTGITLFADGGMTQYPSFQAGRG

CbFDH = target: T1, CbFDH; experiment: as above; type: biochemical; details: 0.5 mM ADPR, 0.5 mM NAD+
BaAlaDH = experiment: as above; type: biochemical, Bacillaceae; details: 0.5 mM ADPR, 0.5 mM NAD+
[3] = target: T2, ADH from Saccharomyces cerevisiae (ScADH); experiment: Inhibition effect of ADPR on type I alcohol dehydrogenase; type: biochemical; details: 0.5 mM ADPR, 0.5 mM NAD+
BmMDH2 [4] = target: T3, BmMDH2; experiment: Isothermal titration calorimetry (ITC) of ADPR binding; parameters: species or system Bacillus methanolicus MGA3; details: metal-free BmMDH2
BmMDH2 [5] = target: T3, BmMDH2; experiment: Kinetic assay of MDHs, ethanol dehydrogenation, NAD+ varied; type: biochemical, Bacillus methanolicus MGA3; details: 1.0 μM ADPR
ACT = ACT (Bacillus methanolicus, UniProt Q8KP10, K162Q/L124I/V88I); details: read-out: KM of ACT for ADPR; Tris-HCl pH 8.0, 5 mM MgCl2, 25 °C
Method: The reaction was terminated by adding 10 μl of 3 M H2SO4 after incubation at 25 ° C for 5 min, followed by analysis using HPLC. The kcat and KM values were determined by fitting the initial velocity versus substrate concentration data to the Michaelis-Menten equation using GraphPad Prism.
Reactions were terminated by adding 10 μL of 3 M H2SO4 after incubation at 25 °C for 5 minutes. Data are means ± SDs of three measurements.

[6] = tested on: isopropanol dehydrogenase (IPADHM4); type: biochemical, Brucella suis
[7] = Specific activity of ACT and its mutants for the hydrolysis of ADPR; type: biochemical
Method: After a 5-minute incubation at 25°C, the reaction was terminated by the addition of 10 μL of 3 M H₂SO₄. The products were subsequently analyzed by HPLC.

BmMDH1 = details: ref [14], [15]; cited from earlier work
BmMDH2 [8] = target: T3, BmMDH2; experiment: BmMDH2 activation by ACT, NADH formation monitored at 340 nm; type: biochemical; details: 100 nM BmMDH2, 3 mM NAD+, pH 9.5
Method: Figure 1 ACT-catalyzed conversion of NAD^+ into a compound that activates BmMDH2.A, effect of ACT concentration on BmMDH2 activation. The formation of NADH was monitored at 340 nm, with 100 nM BmMDH2 in glycine-NaOH buffer (pH 9.5) containing 0 to 125 nM ACT, 3 mM NAD^+, 20 mM ethanol, 5 mM MgCl2 and 0.5 mM MnCl2. Data for the initial 10 min are highlighted in the right panel. Data were from a single experiment. B, effects of the following treatments on BmMDH2 activation: preincubated ACT & NAD^+ (red), preincubated ACT & BmMDH2 (blue), ultrafiltrate of preincubated ACT & NAD^+ (green), and ultrafiltrate of ACT (purple) or NAD^+ (cyan) solutions. Preincubations were performed in glycine-NaOH buffer (pH 9.5) with 5 mM MgCl2 and 0.5 mM MnCl2 at 25 °C for 30 min. Ethanol, BmMDH2, or NAD^+ was subsequently added to achieve final concentrations of 10 nM ACT, 20 mM ethanol, 3 mM NAD^+, and 200 nM BmMDH2. For ultrafiltration, preincubated samples were filtered (10 kDa cutoff, Millipore), and the flowthrough was used for activation assays. Data represent means ± SD (n = 3). C, effect of NAD^+ concentration on BmMDH2 activation. Activity was measured using 100 nM BmMDH2 in glycine-NaOH buffer (pH 9.5) with 50 nM ACT, 0 to 20 mM NAD^+, 5 mM MgCl2, and 0.5 mM MnCl2. Data were from a single experiment. D, time-course of BmMDH2 activation. Reaction were performed in 200 μl glycine-NaOH buffer (100 mM, pH 9.5) with 5 mM MgCl2, 0.5 mM MnCl2, 0.25 mM NAD^+, 0.1 μM BmMDH2, 20 mM ethanol, and 50 nM ACT. Fresh NAD^+ (4 μl, 150 mM) was added twice during the reaction. Data were from a single experiment. E, catalytic rates of BmMDH2 were calculated from the slopes of the data in panel D. Additional replicates of the experiments shown in panels A, C, and D are provided in Fig. S4. […]
The catalytic processes of MDHs were monitored by measuring NADH absorbance at 340 nm using a Tecan SPARK UV-Vis plate reader (Tecan Austria GmbH) at 25 °C. […]

| Molecule | inhibition of BmMDH2 activity (BmMDH2 [1]) [%] | inhibition by ADPR [2] | inhibition by ADPR (CbFDH) | inhibition by ADPR (BaAlaDH) | inhibition by ADPR [3] | binding to EDTA-treated BmMDH2 (BmMDH2 [4]) | effect on kinetics of ethanol dehydrogenation (BmMDH2 [5]) | Km (ACT) [µM] | inhibition by ADPR [6] | Specific activity (ADPRase) ([7]; pH 8.0, 400 μM ADPR, 5 mM MgCl2, 25 °C) [U/mg] | ADPRase activity ([7]; pH 9.5) [U/mg] | increase of BmMDH1 activity (BmMDH1) [fold] | time to full activation of BmMDH2 (BmMDH2 [8]; 31.3 nM ACT) [min] | ACT concentration that triggered immediate BmMDH2 activation (BmMDH2 [8]) [nM] |
| --- | --- | --- | --- | --- | --- | --- | --- | --- | --- | --- | --- | --- | --- | --- |
| adenosine diphosphate ribose [ADPR] | 72 | None of these enzymes showed significant inhibition | None of these enzymes showed significant inhibition | None of these enzymes showed significant inhibition | None of these enzymes showed significant inhibition | no binding | decrease in kcat, while KM remained unchanged | 15.9 | None of these enzymes showed significant inhibition | – | – | – | – | – |
| B1 | – | – | – | – | – | – | – | – | – | 61.2 ± 0.5 | 51.6 ± 0.4 | 40 | ≤ 2.8 | > 62 |
